Measurements from patent US20090192135A1, “Human Niemann Pick C1-Like 1 Gene (NPC1L1) Polymorphisms and Methods of Use Thereof” (SCHERING CORPORATION, priority 2005, published 2009).

Target: T1, NPC1L1 (Homo sapiens, UniProt Q9UHC9)
T1 construct: from tissue; host or cells: small intestine of hypercholesterolemic patients (in vivo, clinical trial)
T1 sequence (Q9UHC9 22-1332 isoform Q9UHC9-2 limits assumed): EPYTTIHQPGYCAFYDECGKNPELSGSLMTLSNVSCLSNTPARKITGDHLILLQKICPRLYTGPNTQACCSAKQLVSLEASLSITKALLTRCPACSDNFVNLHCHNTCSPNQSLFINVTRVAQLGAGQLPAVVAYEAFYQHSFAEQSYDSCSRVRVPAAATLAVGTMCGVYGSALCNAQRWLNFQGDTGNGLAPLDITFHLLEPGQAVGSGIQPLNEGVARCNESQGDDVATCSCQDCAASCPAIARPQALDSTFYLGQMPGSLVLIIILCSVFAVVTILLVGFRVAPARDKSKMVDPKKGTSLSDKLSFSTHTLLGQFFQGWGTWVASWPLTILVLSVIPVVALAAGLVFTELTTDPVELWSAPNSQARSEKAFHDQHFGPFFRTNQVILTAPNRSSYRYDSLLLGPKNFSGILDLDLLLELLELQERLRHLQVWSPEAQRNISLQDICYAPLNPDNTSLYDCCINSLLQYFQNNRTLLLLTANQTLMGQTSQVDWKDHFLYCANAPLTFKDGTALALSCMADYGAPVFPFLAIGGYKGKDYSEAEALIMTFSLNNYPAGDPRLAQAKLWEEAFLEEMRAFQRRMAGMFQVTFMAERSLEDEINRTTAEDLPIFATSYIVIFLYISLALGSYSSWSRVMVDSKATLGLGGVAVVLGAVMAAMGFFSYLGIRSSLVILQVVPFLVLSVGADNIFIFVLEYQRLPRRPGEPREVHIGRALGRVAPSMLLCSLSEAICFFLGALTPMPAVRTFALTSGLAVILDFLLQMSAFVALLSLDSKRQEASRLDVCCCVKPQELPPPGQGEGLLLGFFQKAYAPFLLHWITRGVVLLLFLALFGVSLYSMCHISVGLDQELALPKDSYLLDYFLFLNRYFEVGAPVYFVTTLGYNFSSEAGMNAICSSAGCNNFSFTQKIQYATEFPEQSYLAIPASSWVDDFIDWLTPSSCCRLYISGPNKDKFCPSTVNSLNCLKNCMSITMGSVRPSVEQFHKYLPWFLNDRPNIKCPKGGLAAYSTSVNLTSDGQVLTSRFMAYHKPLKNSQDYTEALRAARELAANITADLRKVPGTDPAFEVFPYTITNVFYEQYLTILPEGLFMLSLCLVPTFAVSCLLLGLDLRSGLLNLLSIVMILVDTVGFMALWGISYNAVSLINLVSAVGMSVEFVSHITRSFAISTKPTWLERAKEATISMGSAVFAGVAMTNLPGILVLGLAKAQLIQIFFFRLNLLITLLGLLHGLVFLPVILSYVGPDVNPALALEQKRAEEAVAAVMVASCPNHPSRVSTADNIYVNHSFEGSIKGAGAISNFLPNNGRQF
Assay: EASE trial: LDL-C response to six weeks of ezetimibe 10 mg/day added to stable statin therapy, analysed by NPC1L1 genotype/haplotype
Assay type: in vivo
Conditions: for Least-Squares (adjusted) Mean (Stderr), percent change in LDL-C: extreme responders; for Least-Squares adjusted Mean (n/Std error), percent change from baseline LDL-C: EASE cohort N = 1195; for Least-Squares (adjusted) Mean (n,/Stderr), percent change in LDL-C: Extreme responders (<10th or >90th percentile) N = 239
Description: Genotyping assays were developed for a number of novel and known common variants with minor allele frequencies greater than 4% that were identified in Example 1. Genetic association analysis was performed with these SNPs in a clinical trial cohort (EASE), described below, to assess whether DNA sequence variants in NPC1L1 are associated with changes in the levels of a variety of plasma cholesterol components in hypercholesterolemia patients in response to pharmacotherapy with ezetimibe and statins as compared to patients treated with a statin and placebo.
To study whether variations in NPC1L1 were associated with response to ezetimibe added to statin therapy, a study population was derived from the Ezetimibe Add-On to Statin for Effectiveness (EASE) Trial (Pearson et al., (2005) Mayo Clinic Proceedings, In Press). The EASE trial was a community-based, randomized, double-blind, placebo controlled study to evaluate the effects of six weeks of ezetimibe, 10 mg/day, added on to a stable regimen of statin therapy, on lipid biomarkers in hypercholesterolemic patients whose LDL-C levels exceeded the National Cholesterol Education Program (NCEP) Adult Treatment Panel (ATP) m guidelines for their coronary heart disease (CHD) risk category. At enrollment, patients taking a stable dose of statin (any dose, any brand) and following a NCEP Step 1 diet or similar cholesterol-lowering diet for at least six weeks prior to entry into the study were randomized to either the ezetimibe (n=2020, 2009 received the treatment) or placebo (n=1010, 1009 received the treatment) arm. From the ezetimibe group, 1208 patients provided consent for genomic analysis and were included in this study. A series of clinical measures corresponding to various cardiovascular risk factors were measured from samples obtained from all trial participants and are summarized by Pearson et al., supra.
Twenty one SNPs from Table 4 (Example 1) were converted to valid genotyping assays, thirteen of which had allele frequencies greater than 2% in all EASE sub-populations. TaqMan Allelic Discrimination assays (Livak, (1999) Genet. Anal. 14:143-49) were performed using Primer Express software and the Assay-by-Design service offered by Applied Biosystems (Foster City, Calif.). […] All probe/primer sets were designed to function using universal reaction and cycling conditions.
The twenty one selected SNPs were genotyped in 1,208 individuals participating in the ezetimibe+statin treatment arm of the EASE trial. A series of clinical measures corresponding to various cardiovascular risk factors were taken on all trial participants (Tables 4a-d). Thirteen selected SNPs genotyped in the EASE cohort were confirmed as having common allele frequencies in this cohort, i.e., an allele frequency of greater than 2% in all EASE sub-populations. […] This could reflect the increased power in the larger EASE cohort to make such detections (see Table 5).
The mean (SD) for total plasma cholesterol, HDL cholesterol (HDL-C), and LDL cholesterol (LDL-C) was 211.0 (34.9), 48.6 (11.5), and 129.1 (30.0) mg/dL, respectively (Pearson et al., supra). […] The distribution of these measurements was similar in the subjects enrolled in this genetic study (Pearson et al., supra). […] No significant associations were found between these response predictive variables and any of the tagging SNPs.
Genetic association analysis was carried out in the EASE cohort with LDL-C response to ezetimibe treatment considered as the primary outcome variable. Individual SNPs, haplotypes, and haplotype combinations were the principal explanatory variables used in the analyses. General linear models were used to estimate the effects of genotypes, haplotypes, and diplotypes on the LDL-C response phenotype. Baseline LDL-C levels, sex, age, and race were investigated to determine if they gave rise to significant effects. Baseline LDL-C levels associated with significant effects in all models and were therefore included in all analyses. […]

[1] = Caucasian ethnic subgroup, g.-18C > A C/A

Least-Squares (adjusted) Mean (Stderr), percent change in LDL-C [1]: −32.81 (3.83) %
Least-Squares (adjusted) Mean (Stderr), percent change in LDL-C (Caucasian ethnic subgroup, g.1679C > G C/G): −26.61 (3.58) %
Least-Squares (adjusted) Mean (Stderr), percent change in LDL-C (Caucasian ethnic subgroup, g.1679C > G G/G): −39.00 (10.81) %
Least-Squares adjusted Mean (Std error), percent change from baseline LDL-C (Caucasian ethnic subgroup, g.-18C > A A/A): −27.19 (3.49) %
Least-Squares adjusted Mean (Std error), percent change from baseline LDL-C [1]: −28.22 (0.96) %
Least-Squares adjusted Mean (Std error), percent change from baseline LDL-C (Caucasian ethnic subgroup, g.-18C > A C/C): −24.34 (0.60) %
Odds Ratio, extreme responder association with SNP (Caucasian ethnic subgroup, g.-18C > A, 95% CI 1.27 to 4.39): 2.36
Least-Squares adjusted Mean (Std error), percent change from baseline LDL-C (Caucasian ethnic subgroup, g.-133A > G A/A): −26.59 (0.73) %
Least-Squares adjusted Mean (Std error), percent change from baseline LDL-C (Caucasian ethnic subgroup, g.-133A > G A/G): −24.78 (0.77) %
Least-Squares adjusted Mean (Std error), percent change from baseline LDL-C (Caucasian ethnic subgroup, g.-133A > G G/G): −22.80 (1.72) %
Least-Squares adjusted Mean (Std error), percent change from baseline LDL-C (Caucasian ethnic subgroup, g.1679C > G (L272L) C/C): −24.66 (0.65) %
Least-Squares adjusted Mean (Std error), percent change from baseline LDL-C (Caucasian ethnic subgroup, g.1679C > G (L272L) C/G): −26.58 (0.85) %
Least-Squares adjusted Mean (Std error), percent change from baseline LDL-C (Caucasian ethnic subgroup, g.1679C > G (L272L) G/G): −28.18 (2.51) %
Least-Squares adjusted Mean (Std error), percent change from baseline LDL-C (Caucasian ethnic subgroup, g.19224G > A A/A): −31.64 (6.56) %
Least-Squares adjusted Mean (Std error), percent change from baseline LDL-C (Caucasian ethnic subgroup, g.19224G > A G/A): −24.81 (1.31) %
Least-Squares adjusted Mean (Std error), percent change from baseline LDL-C (Caucasian ethnic subgroup, g.19224G > A G/G): −25.56 (0.55) %
Least-Squares adjusted Mean (Std error), percent change from baseline LDL-C (Caucasian ethnic subgroup, g.19259T > C C/C): −24.95 (2.01) %
Least-Squares adjusted Mean (Std error), percent change from baseline LDL-C (Caucasian ethnic subgroup, g.19259T > C T/C): −25.61 (0.84) %
Least-Squares adjusted Mean (Std error), percent change from baseline LDL-C (Caucasian ethnic subgroup, g.19259T > C T/T): −25.44 (0.67) %
Least-Squares adjusted Mean (Std error), percent change from baseline LDL-C (Caucasian ethnic subgroup, g.28650A > G A/A): −24.63 (0.64) %
Least-Squares adjusted Mean (Std error), percent change from baseline LDL-C (Caucasian ethnic subgroup, g.28650A > G A/G): −26.90 (0.87) %
Least-Squares adjusted Mean (Std error), percent change from baseline LDL-C (Caucasian ethnic subgroup, g.28650A > G G/G): −26.52 (2.57) %
Least-Squares adjusted Mean (n/Std error), percent change from baseline LDL-C (g.-18C > A A/A): −27.27 (22/3.61) %
Least-Squares adjusted Mean (n/Std error), percent change from baseline LDL-C (g.-18C > A C/A): −27.85 (298/0.98) %
Least-Squares adjusted Mean (n/Std error), percent change from baseline LDL-C (g.-18C > A C/C): −24.16 (875/0.57) %
Least-Squares adjusted Mean (n/Std error), percent change from baseline LDL-C (g.-133A > G A/A): −25.92 (629/0.68) %
Least-Squares adjusted Mean (n/Std error), percent change from baseline LDL-C (g.-133A > G A/G): −24.58 (477/0.78) %
Least-Squares adjusted Mean (n/Std error), percent change from baseline LDL-C (g.-133A > G G/G): −22.56 (89/1.80) %
Least-Squares adjusted Mean (n/Std error), percent change from baseline LDL-C (g.1679C > G C/C): −24.50 (723/0.63) %
Least-Squares adjusted Mean (n/Std error), percent change from baseline LDL-C (g.1679C > G C/G): −25.77 (417/0.83) %
Least-Squares adjusted Mean (n/Std error), percent change from baseline LDL-C (g.1679C > G G/G): −28.77 (55/2.29) %
Least-Squares adjusted Mean (n/Std error), percent change from baseline LDL-C (g.19224G > A A/A): −31.64 (/6.94) %
Least-Squares adjusted Mean (n/Std error), percent change from baseline LDL-C (g.19224G > A G/A): −25.07 (/1.34) %
Least-Squares adjusted Mean (n/Std error), percent change from baseline LDL-C (g.19224G > A G/G): −25.11 (/0.53) %
Least-Squares adjusted Mean (n/Std error), percent change from baseline LDL-C (g.19259T > C C/C): −26.38 (/1.98) %
Least-Squares adjusted Mean (n/Std error), percent change from baseline LDL-C (g.19259T > C T/C): −25.01 (/0.82) %
Least-Squares adjusted Mean (n/Std error), percent change from baseline LDL-C (g.19259T > C T/T): −25.07 (/0.64) %
Least-Squares adjusted Mean (n/Std error), percent change from baseline LDL-C (g.28650A > G A/A): −24.40 (/0.60) %
Least-Squares adjusted Mean (n/Std error), percent change from baseline LDL-C (g.28650A > G A/G): −26.50 (/0.89) %
Least-Squares adjusted Mean (n/Std error), percent change from baseline LDL-C (g.28650A > G G/G): −27.19 (/2.65) %
mean LDL-C change from baseline (EASE cohort, heterozygous for the minor allele of g.−18C>A (298/1195)): 27.8%
mean LDL-C change from baseline (EASE cohort, homozygous for the common allele of g.−18C>A (n=875/1195)): 24.2%
mean change in LDL-C (EASE cohort, homozygous for the minor allele of g.−18C>A (n=22/1195)): 27.3%
Least-Squares (adjusted) Mean (n,/Stderr), percent change in LDL-C (g.-18C > A C/A): −33.98 (62/4.05) %
Least-Squares (adjusted) Mean (n,/Stderr), percent change in LDL-C (g.-18C > A C/C): −16.85 (177/2.40) %
Structure (SMILES): O=C1[C@H](CC[C@H](O)c2ccc(F)cc2)[C@@H](c2ccc(O)cc2)N1c1ccc(F)cc1 [ezetimibe, 1-(4-fluorophenyl)-3(R)-[3-(4-fluorophenyl)-3(S)-hydroxypropyl]-4(S)-(4-hydroxyphenyl)-2-azetidinone]
